Reference: patent publication EP4644375A1, “SUBSTITUTED HYDROQUINOLINES FOR THE TREATMENT OF GLIOBLASTOMA MULTIFORME” (Molius Saglik Teknolojileri Anonim Sirketi, priority 2024, dated 2025)

Experiments:
U87-MG human glioma cell = assay: Cell proliferation analysis (MTT); type: cell-based; conditions: for Cell Proliferation (%) / inhibition at 10 µM / activity at 10 µM: 10 µM, two days; for inhibition at 10 µM / activity at 10 µM: Homo sapiens, U-87 MG, 48 h; for top 5 target compounds whose treatment resulted in the lowest proliferation: ranking
[1] = tested on: U138-MG human glioma cell; assay: Cell proliferation analysis (MTT); type: cell-based; conditions: MTT; for Cell Proliferation (%) / inhibition at 10 µM / activity at 10 µM: 10 µM, two days; for inhibition at 10 µM / activity at 10 µM: Homo sapiens, 48 h

| Structure (SMILES) | Cell Proliferation (%) (U87-MG human glioma cell; MTT) | inhibition at 10 µM (U87-MG human glioma cell; MTT) | Cell Proliferation (%) [1] | inhibition at 10 µM [1] | activity at 10 µM (U87-MG human glioma cell; MTT) | activity at 10 µM [1] | top 5 target compounds whose treatment resulted in the lowest proliferation (U87-MG human glioma cell) | Inhibition (%) (U87-MG human glioma cell; reference drugs, MTT) | Proliferation (%) (U87-MG human glioma cell; reference drugs, MTT) | Inhibition (%) ([1]; reference drugs) | Proliferation (%) ([1]; reference drugs) |
| --- | --- | --- | --- | --- | --- | --- | --- | --- | --- | --- | --- |
| O=C1CCc2cc(OCCCN3C(=O)c4ccccc4C3=O)ccc2N1 [TR-G049, 2-(3-((2-oxo-1,2,3,4-tetrahydroquinolin-6-yl)oxy)propyl)isoindoline-1,3-dione] | 76% | 24% | 63% | 37% |  |  |  |  |  |  |  |
| O=C(COc1ccc2c(c1)CCC(=O)N2)Nc1ccc2ncccc2c1 [TR-G089, 2-((2-oxo-1,23,4-tetrahydroquinolin-6-yl)oxy)-N-(quinolin-6-yl)acetamide] |  | 33% |  | 33% | 67% | 67% |  |  |  |  |  |
| O=C1CCc2cc(OCCBr)ccc2N1 [TR-G017, 6-(2-bromoethoxy)-3,4-dihydroquinolin-2(1H)-one] |  | 6% |  | 18% | 94% | 82% |  |  |  |  |  |
| CCN(C)C(=O)Oc1ccc2c(c1)CCC(=O)N2 [TR-G037, 2-oxo-1,2,3,4-tetrahydroquinolin-6-yl ethyl(methyl)carbamate] |  | 9% |  | 35% | 91% | 65% |  |  |  |  |  |
| C=CCN1C(=O)CCc2cc(OCCCCc3nnnn3C3CCCCC3)ccc21 [TR-G103, 1-allyl-6-(4-(1-cyclohexyl-1H-tetrazol-5-yl)butoxy)-3,4-dihydroquinolin-2(1H)-one] |  | 55% |  | 38% | 45% | 63% | top 5 |  |  |  |  |
| O=C1CCc2cc(OC(=O)c3cccc4ccccc34)ccc2N1 [TR-G011, 2-oxo-1,2,3,4-tetrahydroquinolin-6-yl 1-naphthoate] |  | 24% |  | 40% | 76% | 60% |  |  |  |  |  |
| O=C1CCc2cc(OCc3cn(Cc4ccc(F)cc4)nn3)ccc2N1 [TR-G086, 6-((1-(4-fluorobenzyl)-1H-1,2,3-triazol-4-yl)methoxy)-3,4-dihydroquinolin-2(1H)-one] |  | 21% |  | 21% | 79% | 79% |  |  |  |  |  |
| O=C1CCc2cc(OC(=O)Nc3ccccc3C(F)(F)F)ccc2N1 [TR-G137, 2-oxo-1,2,3,4-tetrahydroquinolin-6-yl (2-(trifluoromethyl)phenyl)carbamate] |  | 27% |  | 40% | 73% | 60% |  |  |  |  |  |
| C=Cc1ccc(CN2C(=O)CCc3cc(OCCCCc4nnnn4C4CCCCC4)ccc32)cc1 [TR-G107, 6-(4-(1-cyclohexyl-1H-tetrazol-5-yl)butoxy)-1-(4-vinylbenzyl)-3,4-dihydroquinolin-2(1H)-one] |  | 53% |  | -3% | 47% | 103% | top 5 |  |  |  |  |
| COc1ccc(/C=N/NC(=O)COc2ccc3c(c2)CCC(=O)N3)cc1 [TR-G026, (E)-N'-(4-methoxybenzylidene)-2-((2-oxo-1,2,3,4-tetrahydroquinolin-6-yl)oxy)acetohydrazide] |  | 8% |  | 10% | 92% | 90% |  |  |  |  |  |
| C=CCOC(=O)N1C(=O)CCc2cc(OCCCCc3nnnn3C3CCCCC3)ccc21 [TR-G114, Allyl 6-(4-(1-cyclohexyl-1H-tetrazol-5-yl)butoxy)-2-oxo-3,4-dihydroquinoline-1(2H)-carboxylate] |  | 14% |  | 15% | 86% | 85% |  |  |  |  |  |
| Cc1ccc(COc2ccc3c(c2)CCC(=O)N3)cc1 [TR-G041, 6-((4-methylbenzyl)oxy)-3,4-dihydroquinolin-2(1H)-one] |  | 30% |  | 26% | 70% | 74% |  |  |  |  |  |
| CC(=O)CCn1cc(COc2ccc3c(c2)CCC(=O)N3)nn1 [TR-G147, 6-((1-(3-oxobutyl)-1H-1,2,3-triazol-4-yl)methoxy)-3,4-dihydroquinolin-2(1H)-one] |  | 11% |  | -22% | 89% | 122% |  |  |  |  |  |
| O=C1CCc2cc(OC(=O)Nc3ccccc3Br)ccc2N1 [TR-G136, 2-oxo-1,2,3,4-tetrahydroquinolin-6-yl (2-bromophenyl)carbamate] | 89% | 11% | 60% | 40% |  |  |  |  |  |  |  |
| CCOC(=O)CN1C(=O)CCc2cc(OCCCCc3nnnn3C3CCCCC3)ccc21 [TR-G102, ethyl 2-(6-(4-(1-cyclohexyl-1H-tetrazol-5-yl)butoxy)-2-oxo-3,4-dihydroquinolin-1(2H)-yl)acetate] |  | 35% |  | 51% | 66% | 49% |  |  |  |  |  |
| O=C(COc1ccc2c(c1)CCC(=O)N2)Nc1ccc(F)c(Cl)c1 [TR-G075, N-(3-chloro-4-fluorophenyl)-2-((2-oxo-1,2,3,4-tetrahydroquinolin-6-yl)oxy)acetamide] |  | 32% |  | 15% | 68% | 85% |  |  |  |  |  |

| Structure (SMILES) | Cell Proliferation (%) (U87-MG human glioma cell; MTT) | inhibition at 10 µM (U87-MG human glioma cell; MTT) | Cell Proliferation (%) [1] | inhibition at 10 µM [1] | activity at 10 µM (U87-MG human glioma cell; MTT) | activity at 10 µM [1] | top 5 target compounds whose treatment resulted in the lowest proliferation (U87-MG human glioma cell) | Inhibition (%) (U87-MG human glioma cell; reference drugs, MTT) | Proliferation (%) (U87-MG human glioma cell; reference drugs, MTT) | Inhibition (%) ([1]; reference drugs) | Proliferation (%) ([1]; reference drugs) |
| --- | --- | --- | --- | --- | --- | --- | --- | --- | --- | --- | --- |
| C=CC(=O)Oc1ccc2c(c1)CCC(=O)N2 [TR-G039, 2-oxo-1,2,3,4-tetrahydroquinolin-6-yl acrylate] |  | 41% |  | 25% | 59% | 75% |  |  |  |  |  |
| O=C1CCc2cc(OCCCCc3nnnn3C3CCCCC3)ccc2N1 [Cilostazol, reference compound] |  |  |  |  |  |  |  | 22% | 78% | 12% | 88% |
| COc1ccc(S(=O)(=O)Oc2ccc3c(c2)CCC(=O)N3)cc1OC [TR-G085, 2-oxo-1,2,3,4-tetrahydroquinolin-6-yl 3,4-dimethoxybenzenesulfonate] |  | 47% |  | 29% | 53% | 71% |  |  |  |  |  |
| CCCn1cc(COc2ccc3c(c2)CCC(=O)N3)nn1 [TR-G082, 6-((1-propyl-1H-1,2,3-triazol-4-yl)methoxy)-3,4-dihydroquinolin-2(1H)-one] |  | 26% |  | 11% | 74% | 89% |  |  |  |  |  |
| O=C(COc1ccc2c(c1)CCC(=O)N2)N/N=C/c1cccc(Oc2ccc(Cl)cc2)c1 [TR-G138, (E)-N'-(3-(4-chlorophenoxy)benzylidene)-2-((2-oxo-1,2,3,4-tetrahydroquinolin-6-yl)oxy)acetohydrazide] |  | 50% |  | 35% |  |  |  |  |  |  |  |
| O=C1CCc2cc(OCc3cc(-c4ccc(F)cc4)no3)ccc2N1 [TR-G142, 6-((3-(4-fluorophenyl)isoxazol-5-yl)methoxy)-3,4-dihydroquinolin-2(1H)-one] |  | 46% |  | 30% | 55% | 70% |  |  |  |  |  |
| CCOC(=O)CCn1cc(COc2ccc3c(c2)CCC(=O)N3)nn1 [TR-G079, ethyl 3-(4-(((2-oxo-1,2,3,4-tetrahydroquinolin-6-yl)oxy)methyl)-1H-1,2,3-triazol-1-yl)propanoate] |  | 6% |  | -12% | 94% | 112% |  |  |  |  |  |
| O=C1CCc2cc(OCC3CC(c4ccc(Cl)cc4)=NO3)ccc2N1 (stereo not shown) [TR-G070, 6-((3-(4-chlorophenyl)-4,5-dihydroisoxazol-5-yl)methoxy)-3,4-dihydroquinolin-2(1H)-one] |  | 33% |  | 21% | 68% | 79% |  |  |  |  |  |
| CS(=O)(=O)Oc1ccc2c(c1)CCC(=O)N2 [TR-G057, 2-oxo-1,2,3,4-tetrahydroquinolin-6-yl methanesulfonate] |  | 15% |  | 1% | 85% | 99% |  |  |  |  |  |
| O=C1CCc2cc(OCc3cc(-c4c(F)cccc4Cl)no3)ccc2N1 [TR-G116, 6-((3-(2-chloro-6-fluorophenyl)isoxazol-5-yl)methoxy)-3,4-dihydroquinolin-2(1H)-one] | 93% | 7% | 59% | 41% |  |  |  |  |  |  |  |
| Cc1ccc(CN2C(=O)CCc3cc(OCCCCc4nnnn4C4CCCCC4)ccc32)cc1 [TR-G104, 6-(4-(1-cyclohexyl-1H-tetrazol-5-yl)butoxy)-1-(4-methylbenzyl)-3,4-dihydroquinolin-2(1H)-one] |  | 51% |  | 17% | 49% | 83% |  |  |  |  |  |
| COc1ccc(C(=O)Oc2ccc3c(c2)CCC(=O)N3)cc1OC [TR-G008, 2-oxo-1,2,3,4-tetrahydroquinolin-6-yl 3,4-dimethoxybenzoate] |  | 37% |  | 35% | 63% | 65% |  |  |  |  |  |
| O=C(COc1ccc2c(c1)CCC(=O)N2)N/N=C/c1ccccc1 [TR-G035, (E)-N'-benzylidene-2-((2-oxo-1,2,3,4-tetrahydroquinolin-6-yl)oxy)acetohydrazide] |  | 14% |  | 26% | 86% | 74% |  |  |  |  |  |
| O=C(COc1ccc2c(c1)CCC(=O)N2)NN=Cc1ccc(Cl)cc1 [TR-G021, N'-(4-chlorobenzylidene)-2-((2-oxo-1,2,3,4-tetrahydroquinolin-6-yl)oxy)acetohydrazide] |  | 36% |  | 40% | 65% | 60% |  |  |  |  |  |
| O=C(COc1ccc2c(c1)CCC(=O)N2)N/N=C/c1ccc([N+](=O)[O-])cc1 [TR-G055, (E)-N'-(4-nitrobenzylidene)-2-((2-oxo-1,2,3,4-tetrahydroquinolin-6-yl)oxy)acetohydrazide] |  | 15% |  | 8% | 85% | 92% |  |  |  |  |  |
